Test results published in patent publication US8143278B2, “Organic compounds” (Novartis AG, priority 2006, dated 2012).

Legend:
aldosterone synthase = target: T1, aldosterone synthase (Homo sapiens, UniProt P19099); test: in vitro aldosterone synthase inhibition (ASI cell), aldosterone production in NCI-H295R cells; format: cell-based; details: 1 μM Ang II, 24 hr
T1 construct: host or cells: NCI-H295R human adrenocortical carcinoma cells
T1 sequence (P19099 25-503): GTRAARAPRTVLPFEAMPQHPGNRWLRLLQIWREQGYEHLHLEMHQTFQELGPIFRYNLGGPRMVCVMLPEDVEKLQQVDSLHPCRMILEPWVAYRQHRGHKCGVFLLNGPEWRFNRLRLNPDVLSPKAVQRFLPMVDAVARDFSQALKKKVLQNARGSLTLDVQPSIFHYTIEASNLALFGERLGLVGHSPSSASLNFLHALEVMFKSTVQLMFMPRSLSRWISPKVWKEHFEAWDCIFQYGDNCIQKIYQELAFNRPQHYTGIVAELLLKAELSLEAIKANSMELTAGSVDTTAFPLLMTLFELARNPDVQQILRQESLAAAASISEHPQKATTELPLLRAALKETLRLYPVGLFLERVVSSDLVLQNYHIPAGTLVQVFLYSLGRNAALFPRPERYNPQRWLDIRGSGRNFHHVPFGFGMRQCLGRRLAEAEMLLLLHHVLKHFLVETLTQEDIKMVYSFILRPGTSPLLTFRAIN
Source text: Human adrenocortical carcinoma NCI-H295R cell line is obtained from American Type Culture Collection (Manassas, Va.). Insulin/transferrin/selenium (ITS)-A supplement (100×), DMEM/F-12, antibiotic/antimycotic (100×), and fetal calf serum (FCS) are purchased from Gibco (Grand Island, N.Y.). Anti-mouse PVT scintillation proximity assay (SPA) beads and NBS 96-well plates are obtained from Amersham (Piscataway, N.J.) and Corning (Acton, Mass.), respectively. Solid black 96-well flat bottom plates are purchased from Costar (Corning, N.Y.). Aldosterone and angiotensin (Ang II) are purchased from Sigma (St. Louis, Mo.). D[1,2,6,7-^3H(N)]aldosterone was acquired from PerkinElmer (Boston, Mass.). Nu-serum was a product of BD Biosciences (Franklin Lakes, N.J.). The NADPH regenerating system, dibenzylfluorescein (DBF), and human aromatase Supersomes® are obtained from Gentest (Woburn, Mass.).
For in vitro measurement of aldosterone activity, human adrenocortical carcinoma NCI-H295R cells are seeded in NBS 96-well plates at a density of 25,000 cells/well in 100 μl of a growth medium containing DMEM/F12 supplemented with 10% FCS, 2.5% Nu-serum, 1 μg ITS/ml, and 1× antibiotic/antimycotic. The medium is changed after culturing for 3 days at 37° C. under an atmosphere of 5% CO2/95% air. On the following day, cells are rinsed with 100 μl of DMEM/F12 and incubated with 100 μl of treatment medium containing 1 μM Ang II and a compound at different concentrations in quadruplicate wells at 37° C. for 24 hr. At the end of incubation, 50 μl of medium is withdrawn from each well for measurement of aldosterone production by an RIA using mouse anti-aldosterone monoclonal antibodies.
Measurement of aldosterone activity can also be performed using a 96-well plate format. Each test sample is incubated with 0.02 μCi of D-[1,2,6,7-^3H(N)]aldosterone and 0.3 μg of anti-aldosterone antibody in phosphate-buffered saline (PBS) containing 0.1% Triton X-100, 0.1% bovine serum albumin, and 12%, glycerol in a total volume of 200 μl at room temperature for 1 hr. Anti-mouse PVT SPA beads (50 μl) are then added to each well and incubated overnight at room temperature prior to counting in a Microbeta plate counter. The amount of aldosterone in each sample is calculated by comparing with a standard curve generated using known quantities of the hormone.
Full concentration-response curves of the test compound are performed at least 3 times. The IC50 values are derived using a non-linear least squares curve-fitting program from Microsoft XLfit.

CYP11B1 = target: T2, CYP11B1 (Homo sapiens, UniProt P15538); test: in vitro CYP11B1 inhibition in NCI-H295R cells; format: cell-based; details: read-out: % inhibition CYP11B1 @ 10 nM
T2 construct: Thus, the NCI-H295R cells have CYP11B1 (steroid 11 p-hydroxylase); host or cells: NCI-H295R human adrenocortical carcinoma cells
T2 sequence (P15538 25-503): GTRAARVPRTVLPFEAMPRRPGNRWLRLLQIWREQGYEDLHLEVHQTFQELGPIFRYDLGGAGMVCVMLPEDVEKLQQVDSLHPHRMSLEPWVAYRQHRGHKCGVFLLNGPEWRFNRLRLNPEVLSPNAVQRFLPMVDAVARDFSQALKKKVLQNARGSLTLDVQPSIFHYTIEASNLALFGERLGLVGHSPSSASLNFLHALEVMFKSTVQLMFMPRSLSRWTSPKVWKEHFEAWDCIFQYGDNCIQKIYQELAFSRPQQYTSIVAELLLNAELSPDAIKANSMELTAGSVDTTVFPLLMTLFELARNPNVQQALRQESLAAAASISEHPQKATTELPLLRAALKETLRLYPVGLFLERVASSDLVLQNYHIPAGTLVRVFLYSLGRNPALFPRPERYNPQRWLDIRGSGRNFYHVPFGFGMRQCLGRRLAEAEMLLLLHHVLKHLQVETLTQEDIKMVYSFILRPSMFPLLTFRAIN
Source text: The cell line NCI-H295R was originally isolated from an adrenocortical carcinoma and has been characterized in the literature through the stimulable secretion of steroid hormones and the presence of the enzymes essential for steroidogenesis. Thus, the NCI-H295R cells have CYP11B1 (steroid 11 p-hydroxylase). The cells show the physiological property of zonally undifferentiated human foetal adrenocortical cells which, however, have the capacity to produce the steroid hormones which are formed in the three, phenotypically distinguishable zones in the adult adrenal cortex. […]
The excretion of aldosterone, cortisol, corticosterone and estradiol/estrone into the culture medium can be detected and quantified by commercially available, specific monoclonal antibodies in radioimmunoassays in accordance with the manufacturer's instructions.
Inhibition of the release of certain steroids can be used as a measure of the respective enzyme inhibition by the added test compounds. The dose-dependent inhibition of enzymic activity by a compound is calculated by means of an inhibition plot which is characterized by an IC50. […]

Structure (SMILES)	IC50 (aldosterone synthase)	inhibition at 0.01 µM (CYP11B1)
CC1(C)C(=O)Nc2cccc(Cl)c2C1n1cncc1CO (racemic) [Compound 8, 5-Chloro-4-(5-hydroxymethyl-imidazol-1-yl)-3,3-dimethyl-3,4-dihydro-1H-quinolin-2-one]	7 nM	–
CN1C(=O)C(C)(C)C(n2ccnc2)c2ccccc21 (racemic) [Compound 7, 4-Imidazol-1-yl-1,3,3-trimethyl-3,4-dihydro-1H-quinolin-2-one]	10 nM	100%
Cc1noc(-c2cncn2C2c3ccccc3NC(=O)C2(C)C)n1 (racemic) [Compound 10, 3,3-Dimethyl-4-[5-(3-methyl-[1,2,4]oxadiazol-5-yl)-imidazol-1-yl]-3,4-dihydro-1H-quinolin-2-one]	137 nM	–
COc1ccc2c(c1)NC(=O)C(C)(C)C2n1ccnc1 (racemic) [Compound 6, 7-methoxy-4-Imidazol-1-yl-3,3-dimethyl-3,4-dihydro-1H-quinolin-2-one]	34 nM	84%
Cc1cncn1C1c2ccc(F)cc2NC(=O)C1(C)C (racemic) [Compound 9, 7-Fluoro-3,3-dimethyl-4-(5-methyl-imidazol-1-yl)-3,4-dihydro-1H-quinolin-2-one]	12 nM	–
